Assay results: patent US6632447B1, “Method for chemoprevention of prostate cancer” (The University of Tennessee Research Corporation, priority 1998, dated 2003)

What was measured:
[1] = system: prostate cancer in the ventral prostate of TRAMP mice; test: Chemopreventive activity of toremifene pellets in TRAMP transgenic mice (palpable tumor formation); assay type: in vivo, mouse
Text: The study of prostate cancer chemoprevention has been hindered by the lack of appropriate animal models. The recent development of the transgenic adenocarcinoma mouse prostate (TRAMP) model enables the study of chemoprevention. In the TRAMP model, which is described in Greenberg et al., AProstate cancer in a transgenic mouse, Proc. Natl Acad. Sci. USA, 1995, Vol. 92, pages 3439-3443, the PB-SV40 large T antigen (PB-Tag) transgene is expressed specifically in the epithelial cells of the murine prostate. […]
A study was undertaken to test the efficacy of chemopreventive agents in TRAMP transgenic animals (PBTag X FVBwt) (provided by Dr. Norman Greenberg, Baylor College of Medicine, TX). […] The efficacy of the treatment was measured by the absence of palpable tumor formation. The murine prostate tumors were harvested and evaluated by molecular and histological techniques.

[2] = system: TRAMP mouse ventral prostate; test: Histological examination (H&E) of ventral prostate tissue of TRAMP mice; assay type: in vivo; conditions: toremifene-treated 30-week-old TRAMP mouse vs placebo-treated 16-week-old
Procedure: 1) Prostate wholemount analysis is serially performed to detect changes in prostate ductal morphology over time with and without treatment; examples are shown in FIG. 2. Tissue sections are evaluated histologically by H&E and Masson-trichome standard staining. The emergence of PIN is assessed and graded (I-mild to III-severe).
Tumors from the placebo and high toremifene-treated groups taken at the time of palpation were evaluated histologically. FIG. 2A is an H&E section of the ventral prostate of a 17-week-old normal adult mouse.

[3] = system: prostate tumor in TRAMP mice; test: Prostatic wholemount, histology and large T antigen immunohistochemistry in TRAMP mice; assay type: in vivo, mouse; conditions: vs placebo at 15 weeks
Procedure: This present study focuses on the histological and molecular changes associated with development of prostate tumor in control animals and the mechanism of toremifene chemopreventive action with TRAMP animals which are bred, screened and treated with sustained-release drug pellets. At predetermined times, groups of 5 animals were sacrificed and their prostates were removed for analysis. The prostate glands were evaluated for the presence of tumor by histology, wholemount dissections, and large T antigen immunohistochemistry. To date, the Placebo and the Toremifene treatments have been completed for the 7, 10, 15 and 20 week time-points and the results are described below.
Prostatic wholemounts for 7, 10, 15, and 20 weeks for the various groups have been completed. […] By 20 weeks, there is a striking delay in tumor occurrence in the Toremifene treated group up to 35 weeks FIG. 4). […] For histological evaluation, tissue samples were fixed, processed and paraffin embedded. Sections ([…]) were cut and stained by routine H&E method.

[4] = system: prostate intraepithelial neoplasia (PIN); test: Phase IIa prostate cancer chemoprevention human clinical trial (PIN regression); assay type: in vivo; conditions: 60 mg daily for 4 months
Procedure: A Phase IIa, open labeled non randomized single center study with 21 human subjects was conducted. […] After 4 months, patients are rebiopsied (8 biopsies) and PIN status is reassessed. Twenty-one patients entered the study and sixteen patients have completed the study.

[5] = system: human stromal fibroblast cells; test: TGF synthesis in human stromal fibroblast cells; assay type: cell-based

serum PSA, serum free testosterone, serum total testosterone and serum estradiol [4]: remained in the normal ranges
Structure (SMILES): CN(C)CCOc1ccc(/C(=C(/CCCl)c2ccccc2)c2ccccc2)cc1 [Toremifene, toremifene]
delay of time to tumors in 25% of the animals ([1]; high and low toremifene groups versus placebo): 7-8 weeks
week by which tumors were palpable in 25% of the animals ([1]; high and low toremifene groups, placebo week 23): 30-31 weeks
glandular architecture of the prostate (H&E) [2]: retains much of the normal glandular architecture
mitotic index [2]: much lower than that for the placebo-treated animal
ductal development and tissue differentiation (H&E histology) [3]: inhibited the ductal development and tissue differentiation
patients with regression of PIN to benign or atrophic prostate tissue (complete response) ([4]; 16 patients completed): 12 out of 16
TGF? synthesis [5]: significantly induce TGF? synthesis
